According to ChEMBL document CHEMBL4354798, “Synthetic Approaches to the New Drugs Approved During 2017” (J Med Chem, 2019):

Columns and labels:
[1] = Half life in human Plasma; format: ADME, cell-free
[2] = Half life in human infected with HIV 20 to 40 mg, po for 7 days; format: ADME, organism-based; conditions: in vivo
[3] = Antitumour activity in human FLT3 positive AML patient assessed as increase in survival time at 50 mg, po bid for 14 days co-treated with CTX relative to control; format: functional

Row | half-life [2] [h] | Compound | further results
1 | – | Cc1cccc(C)c1N(CC(=O)Nc1ccc(-c2ncon2)cc1)C(=O)C1CCS(=O)(=O)CC1 [AMENAMEVIR] | half-life [1]: 8 h
2 | > 120 | N#Cc1cc(Cl)cc(Oc2c(Br)ccc(CC(=O)Nc3ccc(S(N)(=O)=O)cc3Cl)c2F)c1 [DEPULFAVIRINE] | –
3 | 2 | CCC(=O)[N-]S(=O)(=O)c1ccc(NC(=O)Cc2ccc(Br)c(Oc3cc(Cl)cc(C#N)c3)c2F)c(Cl)c1.[Na+] [ELSULFAVIRINE SODIUM] | –
4 | – | CO[C@@H]1[C@H](N(C)C(=O)c2ccccc2)C[C@H]2O[C@]1(C)n1c3ccccc3c3c4c(c5c6ccccc6n2c5c31)C(=O)NC4 [MIDOSTAURIN] | Activity [3]: 80%
